In US6358885B1, “Substituted phenylheterocyclic herbicides” (Mississippi State University, priority 1992, dated 2002):

How the values were obtained:
cheatgrass = assay: Test B preemergence/postemergence greenhouse plant response rating 0 to 10; assay type: in vivo, Bromus secalinus; conditions: for Plant response rating, Cheatgrass: 0 to 10 scale
How it was run: (§1)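 Test chemicals, dissolved in a non-phytotoxic solvent, were applied to soil at planting and, at the same time, over foliage of seedlings at the one to four leaf stage.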

corn = assay: as above; assay type: in vivo, Zea mays; conditions: for Plant response rating, Corn: 0 to 10 scale
How it was run: as §1

cotton [1] = assay: as above; assay type: in vivo, Gossypium hirsutum; conditions: for Plant response rating, Cotton: 0 to 10 scale
How it was run: as §1

lambsquarters [2] = assay: as above; assay type: in vivo, Chenopodium album; conditions: 0 to 10 scale
How it was run: as §1

rice = assay: as above; assay type: in vivo, Oryza sativa; conditions: 0 to 10 scale
How it was run: as §1

wheat = assay: as above; assay type: in vivo, Triticum aestivum; conditions: 0 to 10 scale
How it was run: as §1

wild oat = assay: as above; assay type: in vivo, Avena fatua; conditions: POSTEMERGENCE, 0 to 10 scale
How it was run: as §1

bedstraw = assay: Test C preemergence/postemergence greenhouse plant response rating 0 to 100; assay type: in vivo, Galium aparine; conditions: POSTEMERGENCE
How it was run: (§2)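 Compounds in non-phytotoxic solvent went onto sandy loam before emergence (seeded one day earlier) or onto plants at the one-to-four leaf stage. Duck salad was treated via flood water (~2.5 cm, maintained) over silt loam.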

cotton [3] = assay: as above; assay type: in vivo, Gossypium hirsutum; conditions: POSTEMERGENCE
How it was run: as §2

crabgrass = assay: as above; assay type: in vivo, Digitaria sanguinalis; conditions: POSTEMERGENCE
How it was run: as §2

downy brome = assay: as above; assay type: in vivo, Bromus tectorum; conditions: POSTEMERGENCE
How it was run: as §2

giant foxtail = assay: as above; assay type: in vivo, Setaria faberii; conditions: POSTEMERGENCE
How it was run: as §2

lambsquarters [4] = assay: as above; assay type: in vivo, Chenopodium album; conditions: POSTEMERGENCE
How it was run: as §2

sorghum = assay: as above; assay type: in vivo, Sorghum bicolor; conditions: POSTEMERGENCE
How it was run: as §2

sugar beet = assay: as above; assay type: in vivo, Beta vulgaris; conditions: POSTEMERGENCE
How it was run: as §2

velvetleaf = assay: as above; assay type: in vivo, Abutilon theophrasti; conditions: POSTEMERGENCE
How it was run: as §2

duck salad = assay: Test C flood test plant response rating 0 to 100; assay type: in vivo, Heteranthera limosa
How it was run: as §2

barnyardgrass = assay: Test C flood test plant response rating 0 to 100; assay type: in vivo, Echinochloa crus-galli
How it was run: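 Compounds in non-phytotoxic solvent applied preemergence to sandy loam one day after planting, postemergence at the 1–4 leaf stage, or to ~2.5 cm floodwater over silt loam.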

[5] = POSTEMERGENCE section, flood test, Rate 1 g/ha
[6] = Rate 16 g/ha, under POSTEMERGENCE head (flood test species)
[7] = flood test species listed under POSTEMERGENCE, 62 g/ha, 0 to 100 scale

CCCN1C(=O)COc2cc(F)c(-c3nn4c(c3Cl)CCCC4)cc21 [Compound 32]
Plant response rating, Cheatgrass (cheatgrass; POSTEMERGENCE, Rate 10 g/ha): 4 | Plant response rating (0 to 10 scale), Cheatgrass (cheatgrass; POSTEMERGENCE, Rate 50 g/ha): 5 | Plant response rating, Cheatgrass (cheatgrass; PREEMERGENCE, Rate 10 g/ha): 2 | Plant response rating, Cheatgrass (cheatgrass; PREEMERGENCE, Rate 50 g/ha): 5 | Plant response rating, Corn (corn; POSTEMERGENCE, Rate 10 g/ha): 3 | Plant response rating (0 to 10 scale), Corn (corn; POSTEMERGENCE, Rate 50 g/ha): 4 | Plant response rating, Corn (corn; PREEMERGENCE, Rate 50 g/ha): 0 | Plant response rating, Cotton (cotton [1]; POSTEMERGENCE, Rate 10 g/ha): 10 | Plant response rating (0 to 10 scale), Cotton (cotton [1]; POSTEMERGENCE, Rate 50 g/ha): 10 | Plant response rating, Cotton (cotton [1]; PREEMERGENCE, Rate 10 g/ha): 0 | Plant response rating, Cotton (cotton [1]; PREEMERGENCE, Rate 50 g/ha): 8 | Plant response rating, Lambsquarter (lambsquarters [2]; POSTEMERGENCE, Rate 10 g/ha): 10 | Plant response rating, Lambsquarter (lambsquarters [2]; POSTEMERGENCE, Rate 50 g/ha): 10 | Plant response rating, Lambsquarter (lambsquarters [2]; PREEMERGENCE, Rate 50 g/ha): 10 | Plant response rating, Rice (rice; POSTEMERGENCE, Rate 10 g/ha): 4 | Plant response rating, Rice (rice; POSTEMERGENCE, Rate 50 g/ha): 7 | Plant response rating, Rice (rice; PREEMERGENCE, Rate 50 g/ha): 1 | Plant response rating, Wheat (wheat; POSTEMERGENCE, Rate 10 g/ha): 5 | Plant response rating, Wheat (wheat; POSTEMERGENCE, Rate 50 g/ha): 5 | Plant response rating, Wheat (wheat; PREEMERGENCE, Rate 50 g/ha): 0 | Plant response rating, Wild oat (wild oat; Rate 10 g/ha): 4 | Plant response rating, Wild oat (wild oat; Rate 50 g/ha): 4 | Plant response rating, Bedstraw (bedstraw; 62 g/ha, 0 to 100 scale): 100 | Plant response rating (0 to 100), Bedstraw (bedstraw; Rate 1 g/ha): 85 | Plant response rating (0 to 100), Bedstraw (bedstraw; Rate 4 g/ha): 90 | Plant response rating (0 to 100), Bedstraw (bedstraw; Rate 16 g/ha): 100 | Plant response rating, Cotton (cotton [3]; 62 g/ha, 0 to 100 scale): 100 | Plant response rating (0 to 100), Cotton (cotton [3]; Rate 1 g/ha): 95 | Plant response rating (0 to 100), Cotton (cotton [3]; Rate 4 g/ha): 100 | Plant response rating (0 to 100), Cotton (cotton [3]; Rate 16 g/ha): 100 | Plant response rating, Crabgrass (crabgrass; 62 g/ha, 0 to 100 scale): 40 | Plant response rating (0 to 100), Crabgrass (crabgrass; Rate 1 g/ha): 10 | Plant response rating (0 to 100), Crabgrass (crabgrass; Rate 4 g/ha): 20 | Plant response rating (0 to 100), Crabgrass (crabgrass; Rate 16 g/ha): 30 | Plant response rating Downy Brome (downy brome; 62 g/ha, 0 to 100 scale): 50 | Plant response rating (0 to 100), Downy Brome (downy brome; Rate 1 g/ha): 20 | Plant response rating (0 to 100), Downy Brome (downy brome; Rate 4 g/ha): 30 | Plant response rating (0 to 100), Downy Brome (downy brome; Rate 16 g/ha): 40 | Plant response rating, Giant foxtail (giant foxtail; 62 g/ha, 0 to 100 scale): 70 | Plant response rating (0 to 100), Giant foxtail (giant foxtail; Rate 1 g/ha): 20 | Plant response rating (0 to 100), Giant foxtail (giant foxtail; Rate 4 g/ha): 30 | Plant response rating (0 to 100), Giant foxtail (giant foxtail; Rate 16 g/ha): 50 | Plant response rating Lambsquarters (lambsquarters [4]; 62 g/ha, 0 to 100 scale): 100 | Plant response rating (0 to 100), Lambsquarters (lambsquarters [4]; Rate 1 g/ha): 70 | Plant response rating (0 to 100), Lambsquarters (lambsquarters [4]; Rate 4 g/ha): 80 | Plant response rating (0 to 100), Lambsquarters (lambsquarters [4]; Rate 16 g/ha): 100 | Plant response rating, Sorghum (sorghum; 62 g/ha, 0 to 100 scale): 60 | Plant response rating (0 to 100), Sorghum (sorghum; Rate 1 g/ha): 30 | Plant response rating (0 to 100), Sorghum (sorghum; Rate 4 g/ha): 40 | Plant response rating (0 to 100), Sorghum (sorghum; Rate 16 g/ha): 50 | Plant response rating, Sugar beet (sugar beet; 62 g/ha, 0 to 100 scale): 100 | Plant response rating (0 to 100), Sugar beet (sugar beet; Rate 1 g/ha): 80 | Plant response rating (0 to 100), Sugar beet (sugar beet; Rate 4 g/ha): 100 | Plant response rating (0 to 100), Sugar beet (sugar beet; Rate 16 g/ha): 100 | Plant response rating, Velvetleaf (velvetleaf; 62 g/ha, 0 to 100 scale): 100 | Plant response rating (0 to 100), Velvetleaf (velvetleaf; Rate 1 g/ha): 100 | Plant response rating (0 to 100), Velvetleaf (velvetleaf; Rate 16 g/ha): 100 | Plant response rating (0 to 100), Duck salad (duck salad; [5]): 0 | Plant response rating (0 to 100), Duck salad (duck salad; POSTEMERGENCE section, flood test, Rate 4 g/ha): 0 | Plant response rating (0 to 100), Duck salad (duck salad; [6]): 30 | Plant response rating Duck salad (duck salad; [7]): 60 | Plant response rating (0 to 100), Barnyardgrass (barnyardgrass; [5]): 30 | Plant response rating (0 to 100), Barnyardgrass (barnyardgrass; Rate 4 g/ha, under POSTEMERGENCE head (flood test species)): 55 | Plant response rating (0 to 100), Barnyardgrass (barnyardgrass; [6]): 100 | Plant response rating, Barnyardgrass (barnyardgrass; [7]): 100
